Data published in US12070457B2, “Substituted pyridines, pyridazines, pyrimidines, and 1,2,3-triazines as bruton's tyrosine kinase inhibitors” (HUTCHISON MEDIPHARMA LIMITED, priority 2020, dated 2024).
Read-outs that look alike come from different tables or passages of the source.

How the values were obtained:
[1] = Study on in vivo pharmacokinetics in mice; set-up: species or system mouse; settings: for concentration at 8 h / concentration at 24 h: male, ICR, mouse
From the text: Example 6 Study on In Vivo Pharmacokinetics in Mice
Solutol HS15 was purchased from BASF, Germany, ethanol (anhydrous) was purchased from Nanjing Chemical Reagent Co., Ltd., physiological saline was purchased from Huayu (Wuxi) Pharmaceutical Co., Ltd., dimethyl sulfoxide (DMSO) and sodium carboxymethyl cellulose 800-1200 (CMC-Na) were purchased from Sinopharm Chemical Reagent Co., Ltd.
Preparation of ethanol/Solutol mixed solution (1:1, v/v): taking an appropriate amount of Solutol HS15 in a centrifuge tube and placing in a 37° C. water bath until dissolved, placing on the bench top to room temperature, taking 1 mL of Solutol in a centrifuge tube containing 1 mL of ethanol and mixing well to obtain the mixed solution.
Taking an appropriate amount of stock solution and placing in a blank centrifuge tube, adding an appropriate amount of ethanol/Solutol mixed solution prepared in advance, vortexing, then adding an appropriate amount of physiological saline, and mixing well until a transparent liquid.
3. Administration to Animals and Sample Collection:
Male ICR mice were purchased from Shanghai Lingchang Biotechnology Co., Ltd. 18 mice were randomly divided into intravenous administration group and intragastric administration group. The mice were fasted overnight before administration. The mice were withheld food but allowed to access water freely within 4 hours after administration, and allowed to freely access food and water after 4 hours. After anesthesia with isoflurane, blood was collected from the retroorbital venous plexus and placing in an centrifuge tube containing anticoagulant, and the centrifuge tube was stored in an box containing wet ice until the plasma was centrifuged.
The plasma samples were pre-treated and then analyzed by liquid chromatography-tandem mass spectrometry (LC-MS/MS), the instrument model was API5500. The analytical chromatographic column was Waters XSELECT HSS T3 C18 column (50×2.1 mm, 2.5 μm). In the mobile phases, deionized water containing 0.1% formic acid and 0.1% acetonitrile was used as the aqueous phase and acetonitrile containing 0.1% formic acid was used as the organic phase. The concentrations of the compound in the samples were determined as follows. Firstly, a standard curve was established, and the peak area ratios of the compound 19 to the internal standard in the standard curve were used as indexes. The theoretical concentrations of compound 19 and the peak area ratios of compound 19 to the internal standard were fitted with a quadratic regression equation to obtain the regression equation. The sample concentrations were calculated by measuring the peak area ratio of the compound of the test sample to the internal standard according to the standard curve.

[2] = tested on: TMD8 subcutaneous xenograft (human diffuse large B-cell lymphoma cells); test: In vivo efficacy in TMD8 subcutaneous xenograft model; set-up: species or system mouse; settings: 10 mg/kg and 30 mg/kg vs Ibrutinib 50 mg/kg and GDC-0853 10 mg/kg
Experimental: Example 7 Evaluation of In Vivo Efficacy of the Compound of the Present Invention in TMD8 Subcutaneous Xenograft Model
Objects: To investigate the anti-tumor activity of compound 19 in TMD8 subcutaneous xenograft model in nude mice.
Methods: Human diffuse large B-cell lymphoma cells TMD8 (acquired under license from Tokyo Medical and Dental University) were cultured in RPMI1640 medium containing 10% fetal bovine serum. 1×10^7 tumor cells suspended in RPMI1640 medium mixed well with Matrigel (purchased from Corning, USA) at 1:1 were implanted subcutaneously on the right flank of each male Balb/c nude mouse (Shanghai Lingchang Biotechnology Co., Ltd.), pretreated with cyclophosphamide (at a dose of 200 mg/kg, intraperitoneal injection 24 h before cell inoculation). […] All drugs were administered by oral gavage, once a day, and the vehicle control group was administered orally with 0.5% hydroxypropyl methylcellulose solution (pH=3).
Tumor volumes (tumor volume=0.5× long diameter× short diameter^2) and body weights of the mice were measured regularly. The tumor volume change and body weight were statistically analyzed, with p<0.05 considered statistically significant, and p<0.01 as extremely statistically significant.
The anti-tumor activity was evaluated by tumor growth inhibition. […]

- concentration at 8 h ([1]; oral, mice, intragastric, 10 mg/kg, plasma at 8 h, read-out: C8 h): 555 ng/mL
- concentration at 24 h ([1]; oral, mice, intragastric, 10 mg/kg, plasma at 24 h, read-out: C24 h): 8.5 ng/mL
- concentration at 8 h ([1]; plasma, 10 mg/kg, oral administration in mice, 8 h, read-out: plasma concentration at 8 h): 555 ng/mL
- concentration at 24 h ([1]; plasma, 10 mg/kg, oral administration in mice, 24 h, lower limit of quantification 2.4 ng/mL, read-out: plasma concentration at 24 h): 8.5 ng/mL
- T1/2 ([1]; mice, intragastric, 10 mg/kg): 2.7 h
- plasma exposure (AUC0-∞) relative to reference GDC-0853 ([1]; oral administration in mice): about 1.7 times
- plasma concentration at 8 h relative to GDC-0853 ([1]; oral administration in mice, 8 h): about 3.9 folds
SMILES: C[C@H]1CN(C2COC2)CCN1c1ccc(Nc2cc(-c3ccnc(-n4ccn5c6c(cc5c4=O)CC(C)(C)C6)c3CO)cn(C)c2=O)nc1 [Compound 19]
- anti-tumor efficacy compared with Ibrutinib or GDC-0853 [2]: statistically significant superior efficacy to Ibrutinib or GDC-0853
